# How the values were obtained:
# [1] = cited from earlier work
# [2] = test system: pancreatic cancer xenograft PAXF 736; experiment: clonogenic assay, single agents and combination studies; assay type: cell-based, human
# Method: (§1) The cell mixture was passed through sieves of 200 μm and 50 μm mesh size and washed thereafter twice with PBS. The percentage of viable cells was determined in a Neubauer counting chamber using trypan blue exclusion.
# (§2) 8×10^3 to 1,6×10^4 cells were added to 0.2 ml of the same culture medium together with 0.4% agar and placed in already coated 24-multiwell dishes. Test substances were applied by continuous exposure (drug overlay) in 0.2 ml medium. Every dish included six control wells containing the vehicle- and drug-treated groups in triplicate at six concentrations.
# (§3) Cultures were incubated at 37° and 7% CO2 in a humidified atmosphere for 5 to 15 days (depending on the doubling time of the tumor stem cells) and monitored for colony growth using an inverted microscope. Within this period, in vitro tumor growth led to the formation of colonies with a diameter of ≧50 μm. At the time of maximum colony formation counts were performed with an automatic image analysis system (OMNICOM Fas IV, Biosys GmbH). […] Drug effects were expressed in terms of the percentage of surviving cells, obtained by comparison of the mean number of colonies in the treated plates with the mean colony count of the untreated controls (test-versus-control-group value, T/C=colony countTreated Group*100/colony countControl Group).
# (§4) Coefficient of variation in the control group ≦50%. IC50 and IC70 values were determined by plotting compound concentration versus cell survival rate. Mean IC50 and IC70 values were calculated according to the formula: [formula]
# (§5) with x=specific tumor xenograft and n=total number of tumor xenografts studied. If an IC50 or IC70 value could not be determined within the examined dose range, the lowest or highest concentration studied was used for the calculation.
# (§6) Each experiment included the chemotherapeutic agents in 6 concentrations, selenium in 2 concentrations (3 and 30 μM), and the combination of all doses with selenium at 3 and 30 μM. All compounds and combinations were studied in triplicates. […] Each experiment was performed twice.
# (§7) T/Cexpectd(A+B)=T/C(A)×T/C(B)/100
# (§8) For a zero-interactive drug combination (additivity of drug effects) T/Cexpected(A+B)[…]T/Cobserved(A+B). A drug combination is synergistic if T/Cobserved(A+B) is statistically significant[…]T/Cexpected(A+B). Statistical significance was determined by the T-test.
# [3] = test system: pancreatic cancer xenograft PAXF 546; experiment: as above; assay type: cell-based, human
# Method: as §1, §2, §3, §4, §5, §6, §7, §8
smiles,measurement,setting,value
O=[Se]([O-])[O-].[Na+].[Na+] [sodium selenite],dosage considered harmless in sensitive persons,"[1]; humans, sensitive persons",up to 500 μg per day
same,safe maximum daily intake of selenium,"[1]; humans, inferred from chronic toxicity observations",820 µg
same,daily supply after which clinical signs of selenosis were observed,[1]; study carried out in China,3200 to 6700 µg
same,Sodium selenite T/C in %,"[2]; 3.0 μM alone, X265, X290",81 ± 12%
same,Sodium selenite T/C in %,"[2]; 30.0 μM alone, X265",43 ± 8%
same,Sodium selenite T/C in %,"[2]; 30.0 μM alone, X290",5 ± 2%
same,Sodium selenite T/C in %,"[2]; 30.0 μM alone, X290, listed as selenium",5%
same,Test/control (%) at drug concentration [μM] 1.,"[2]; PAXF 736/17, X184AM",88%
same,Test/control (%) at drug concentration [μM] 10.,"[2]; PAXF 736/17, X184AM",90%
same,Test/control (%) at drug concentration [μM] 100.,"[2]; PAXF 736/17, X184AM",4%
same,Test/control (%) at drug concentration [μM] .001,"[2]; PAXF 736/17, X184AM",87%
same,Test/control (%) at drug concentration [μM] .01,"[2]; PAXF 736/17, X184AM",77%
same,Test/control (%) at drug concentration [μM] .1,"[2]; PAXF 736/17, X184AM",94%
same,Test/control (%) class at drug concentration [μM] 1.,"[2]; PAXF 736/17, X184AM",− (− (T/C ≧ 50%))
same,Test/control (%) class at drug concentration [μM] 10.,"[2]; PAXF 736/17, X184AM",− (− (T/C ≧ 50%))
same,Test/control (%) class at drug concentration [μM] 100.,"[2]; PAXF 736/17, X184AM",+++ (+++ (T/C ≦ 10%))
same,Test/control (%) class at drug concentration [μM] .001,"[2]; PAXF 736/17, X184AM",− (− (T/C ≧ 50%))
same,Test/control (%) class at drug concentration [μM] .01,"[2]; PAXF 736/17, X184AM",− (− (T/C ≧ 50%))
same,Test/control (%) class at drug concentration [μM] .1,"[2]; PAXF 736/17, X184AM",− (− (T/C ≧ 50%))
same,Sodium selenite T/C in %,"[3]; 3.0 μM alone, X261, X295",91 ± 8%
same,Sodium selenite T/C in %,"[3]; 30.0 μM alone, X261",80 ± 13%
same,Sodium selenite T/C in %,"[3]; 30.0 μM alone, X295",49 ± 6%
same,Test/control (%) at drug concentration [μM] 1.,"[3]; PAXF 546/2, *(2)",104%
same,Test/control (%) at drug concentration [μM] 10.,"[3]; PAXF 546/2, *(2)",88%
same,Test/control (%) at drug concentration [μM] 100.,"[3]; PAXF 546/2, *(2)",2%
same,Test/control (%) at drug concentration [μM] .001,"[3]; PAXF 546/2, *(2)",82%
same,Test/control (%) at drug concentration [μM] .01,"[3]; PAXF 546/2, *(2)",112%
same,Test/control (%) at drug concentration [μM] .1,"[3]; PAXF 546/2, *(2)",100%
same,Test/control (%) class at drug concentration [μM] 1.,"[3]; PAXF 546/2, *(2)",− (− (T/C ≧ 50%))
same,Test/control (%) class at drug concentration [μM] 10.,"[3]; PAXF 546/2, *(2)",− (− (T/C ≧ 50%))
same,Test/control (%) class at drug concentration [μM] 100.,"[3]; PAXF 546/2, *(2)",+++ (+++ (T/C ≦ 10%))
same,Test/control (%) class at drug concentration [μM] .001,"[3]; PAXF 546/2, *(2)",− (− (T/C ≧ 50%))
same,Test/control (%) class at drug concentration [μM] .01,"[3]; PAXF 546/2, *(2)",− (− (T/C ≧ 50%))
same,Test/control (%) class at drug concentration [μM] .1,"[3]; PAXF 546/2, *(2)",− (− (T/C ≧ 50%))

# Source: US6656509B1, “Combination of selenium-containing compounds with cytostatics” (Biosyn Arzneimittel GmbH, priority 1998, dated 2003)
